Test: Assay (%) test of APIs in cream, stability study, HPLC method
Assay type: physicochemical
Experimental: The stability of the product is confirmed by the stability studies performed for 3/6 months as per ICH guidelines.
APIs-stability experiments were carried out (see tables 3-20) using several products that are representative of the present invention. Tests were carried out to observe (or measure as appropriate) the physical appearance of the product, the pH value and assay of the APIs over a period of time. […] Betamethasone Valerate—0.12% (w/w) • ii. Fluticasone Propionate—0.05% (w/w) • iii. Mometasone Furoate—0.1% (w/w) • iv. Dexamethasone Acetate—0.1% (w/w) • v. Hydrocortisone Acetate—1.0% (w/w) • vi. Clobetasol Propionate—0.05% (w/w) • vii. Beclomethasone Dipropionate—0.025% (w/w) • viii. Betamethasone Dipropionate—0.05% (w/w) wherein all percentages are with respect to the final formulation.
The product used for the Stability Studies tests contained approximately 10% extra APIs (overages).

CC(=O)O[C@H]1C[C@@]2(C)[C@@H](C[C@@H](O)[C@H]3[C@@]4(C)CC[C@@H](O)[C@@H](C)[C@@H]4CC[C@@]32C)/C1=C(\CCC=C(C)C)C(=O)O [Fusidic acid]
Assay (%) (in cream Batch No. SFC-01, 25° C. 60% RH, 1st Month): 108.64% | Assay (%) (in cream Batch No. SFC-01, 25° C. 60% RH, 2nd Month): 108.52% | Assay (%) (in cream Batch No. SFC-01, 25° C. 60% RH, 3rd Month): 108.48% | Assay (%) (in cream Batch No. SFC-01, 25° C. 60% RH, 6th Month): 108.38% | Assay (%) (in cream Batch No. SFC-01, 30° C. 65% RH, 1st Month): 108.53% | Assay (%) (in cream Batch No. SFC-01, 30° C. 65% RH, 2nd Month): 108.31% | Assay (%) (in cream Batch No. SFC-01, 30° C. 65% RH, 3rd Month): 108.26% | Assay (%) (in cream Batch No. SFC-01, 30° C. 65% RH, 6th Month): 108.22% | Assay (%) (in cream Batch No. SFC-01, 40° C. 75% RH, 1st Month): 108.56% | Assay (%) (in cream Batch No. SFC-01, 40° C. 75% RH, 2nd Month): 108.36% | Assay (%) (in cream Batch No. SFC-01, 40° C. 75% RH, 3rd Month): 108.21% | Assay (%) (in cream Batch No. SFC-01, 40° C. 75% RH, 6th Month): 108.18% | Assay (%) (in cream Batch No. SFC-01, Freezthaw, 1st Month): 108.21% | Assay (%) (in cream Batch No. SFC-01, Initial): 108.68% | Assay (%) (in cream Batch No. SFC-01, Temperature cycling, 1st Month): 108.10% | Assay (%) (in cream Batch No. SFD-01, 25° C. 60% RH, 1st Month): 108.60% | Assay (%) (in cream Batch No. SFD-01, 25° C. 60% RH, 2nd Month): 108.54% | Assay (%) (in cream Batch No. SFD-01, 25° C. 60% RH, 3rd Month): 108.46% | Assay (%) (in cream Batch No. SFD-01, 30° C. 65% RH, 1st Month): 108.63% | Assay (%) (in cream Batch No. SFD-01, 30° C. 65% RH, 2nd Month): 108.52% | Assay (%) (in cream Batch No. SFD-01, 30° C. 65% RH, 3rd Month): 108.32% | Assay (%) (in cream Batch No. SFD-01, 40° C. 75% RH, 1st Month): 108.58% | Assay (%) (in cream Batch No. SFD-01, 40° C. 75% RH, 2nd Month): 108.44% | Assay (%) (in cream Batch No. SFD-01, 40° C. 75% RH, 3rd Month): 108.30% | Assay (%) (in cream Batch No. SFD-01, Freezthaw, 1st Month): 108.41% | Assay (%) (in cream Batch No. SFD-01, Initial): 108.62% | Assay (%) (in cream Batch No. SFD-01, Temperature cycling, 1st Month): 108.52% | Assay (%) (in cream Batch No. SFM-01, 25° C. 60% RH, 1st Month): 108.24% | Assay (%) (in cream Batch No. SFM-01, 25° C. 60% RH, 2nd Month): 108.22% | Assay (%) (in cream Batch No. SFM-01, 25° C. 60% RH, 3rd Month): 108.20% | Assay (%) (in cream Batch No. SFM-01, 25° C. 60% RH, 6th Month): 107.95% | Assay (%) (in cream Batch No. SFM-01, 30° C. 65% RH, 1st Month): 108.23% | Assay (%) (in cream Batch No. SFM-01, 30° C. 65% RH, 2nd Month): 108.21% | Assay (%) (in cream Batch No. SFM-01, 30° C. 65% RH, 3rd Month): 108.16% | Assay (%) (in cream Batch No. SFM-01, 30° C. 65% RH, 6th Month): 107.92% | Assay (%) (in cream Batch No. SFM-01, 40° C. 75% RH, 1st Month): 108.26% | Assay (%) (in cream Batch No. SFM-01, 40° C. 75% RH, 2nd Month): 108.14% | Assay (%) (in cream Batch No. SFM-01, 40° C. 75% RH, 3rd Month): 108.08% | Assay (%) (in cream Batch No. SFM-01, 40° C. 75% RH, 6th Month): 107.89% | Assay (%) (in cream Batch No. SFM-01, Freezthaw, 1st Month): 108.11% | Assay (%) (in cream Batch No. SFM-01, Initial): 108.27% | Assay (%) (in cream Batch No. SFM-01, Temperature cycling, 1st Month): 107.63% | Assay (%) (in cream Batch No. SPC-01, 25° C. 60% RH, 1st Month): 108.30% | Assay (%) (in cream Batch No. SPC-01, 25° C. 60% RH, 2nd Month): 108.24% | Assay (%) (in cream Batch No. SPC-01, 25° C. 60% RH, 3rd Month): 108.15% | Assay (%) (in cream Batch No. SPC-01, 25° C. 60% RH, 6th Month): 108.08% | Assay (%) (in cream Batch No. SPC-01, 30° C. 65% RH, 1st Month): 108.31% | Assay (%) (in cream Batch No. SPC-01, 30° C. 65% RH, 2nd Month): 108.32% | Assay (%) (in cream Batch No. SPC-01, 30° C. 65% RH, 3rd Month): 108.22% | Assay (%) (in cream Batch No. SPC-01, 30° C. 65% RH, 6th Month): 108.11% | Assay (%) (in cream Batch No. SPC-01, 40° C. 75% RH, 1st Month): 108.33% | Assay (%) (in cream Batch No. SPC-01, 40° C. 75% RH, 2nd Month): 108.24% | Assay (%) (in cream Batch No. SPC-01, 40° C. 75% RH, 3rd Month): 108.10% | Assay (%) (in cream Batch No. SPC-01, 40° C. 75% RH, 6th Month): 108.01% | Assay (%) (in cream Batch No. SPC-01, Freezthaw, 1st Month): 108.22% | Assay (%) (in cream Batch No. SPC-01, Initial): 108.38% | Assay (%) (in cream Batch No. SPC-01, Temperature cycling, 1st Month): 108.28%

From patent US9066861B2 (priority 2009, dated 2015)
